Source: US20200231912A1, “USE OF STEVIOL GLYCOSIDE IN MALTING” (Corn Products Development, Inc., priority 2017, published 2020)

tested on: two row barley; assay: Germination rate assay; assay type: in vivo; conditions: Example 2; 4.5 days germination; % printed
Description: The Germination rate assay informs the percentage of germinated kernels during malting. One hundred barley grains are placed inside each one of four Petri plates containing 4mL of distilled water in a paper filter. The number of germinated kernels is measured after 24, 48 and 72 hours respectively. The germination rate is defined comparing the number of germinated kernels at 24, 48 and 72 h with total number of kernels (400). Typical result for Germination rate analysis is minimum 95%.

Row | Molecule | Germination rate [%]
1 | C=C1C[C@]23C[C@@]1(O)CC[C@H]2[C@@]12C=C[C@H](O)[C@@](C)(C(=O)O1)[C@H]2[C@@H]3C(=O)O [Control 3, Gibberellic acid] | 90

tested on: two row barley; assay: Huzzar rate assay; assay type: in vivo; conditions: Example 2; 4.5 days germination; % printed
Text: The Huzzar rate assay informs the ratio of cereal kernels in which the acrospires have emerged from end of grains. A range of devices have been used as measuring aids having magnifying lenses and ruled scales with diverging lines that are arranged over the grain with the base and tip at the “0” and “1” lines and then divide the grain length into ¼, ½, ⅔, ¾, 1 and 1+ or overgrown. The results may be expressed as an average value. Typical result for Huzzar rate analysis is maximum 3%.

Row | Molecule | Huzzar rate [%]
2 | C=C1C[C@]23C[C@@]1(O)CC[C@H]2[C@@]12C=C[C@H](O)[C@@](C)(C(=O)O1)[C@H]2[C@@H]3C(=O)O [Control 3, Gibberellic acid] | 5

tested on: two row barley; assay: Malting trials: overall malt quality against defined specifications; conditions: Example 2; inferred from content in compositions A-E and Table 6
Description: Cereal grain malting trials were performed according to the methods described herein to compare Control malts # 1, 2 and 3 with Test malts # 1, 2, 3, 4 and 5, where steviol glycosides were added at the following rates: • Test 1: 0.00019 kg per 1 metric ton of unmalted barley; • Test 2: 0.00013 kg per 1 metric ton of unmalted barley; • Test 3: 0.00024 kg per 1 metric ton of unmalted barley; • Test 4: 0.00070 kg per 1 metric ton of unmalted barley; • Test 5: 0.00043 kg per 1 metric ton of unmalted barley; The steviol glycosides were added at the beginning of the germination process, prior to kilning. Table 5 illustrates the weight percent ranges of each steviol glycoside in a mixture of steviol glycosides.
Control malts # 1, 2 and 3 and Test malts # 1, 2, 3, 4 and 5 were prepared as follows. The general process is illustrated in FIG. 10.
Control Malt # 1 was produced according to the steeping process described in FIG. 10, which was performed in flat bottomed steep vessel, adding 400 kg of 100% two row barley having a 10% moisture content to water. The steeping process included three steeping steps, including a steeping step which was conducted for 1:15 hours and followed by a drying step which was aeration at 19-21° C. during 6 hours. The steeping step was repeated two times. When the steeping degree of the cereal grains measured ≥42%, the water was drained off in preparation for germination. Steviol glycosides and/or gibberellic acid were not added during Control Malt # 1 production.
The germinating step of Control Malt # 1 is described in FIG. 10, which occurred in a typical rectangular germination box (e.g., unit type Saladin) for 5.5 days. The ventilation air temperature during the germinating step was 15-18° C. from the first until the third germination day, followed by ventilation air temperature of 11-15° C. from the third until the last germination day, and the moisture content was 43-47%. The malt turning procedures, which provide the mixing for the germinating kernels, were used first after 24 hours of germination and second after 48 hours of germination. Once the germination time achieved the expected value for Control Malt # 1, the kernels were kilned.
The kilning step is then described in FIG. 10 as using a single floor kiln with gas heating. The kernels were heated for 16:30 hours using hot air from 55-70° C., then for 5 hours using hot air at 80° C. […] The malt was cleaned by removing the rootlets using a malt deculming screw, and the cleaned malt was packaged into 25 kilogram bags.

Row | Molecule | impact on stimulation of barley germination | effect on proteolytic enzymes activity and protein breakdown
3 | C=C1C[C@@]23CC[C@H]4[C@@](C)(CCC[C@@]4(C)C(=O)O[C@@H]4O[C@H](CO)[C@@H](O)[C@H](O)[C@H]4O[C@@H]4O[C@H](CO)[C@@H](O)[C@H](O)[C@H]4O)[C@@H]2CC[C@]1(O[C@@H]1O[C@H](CO)[C@@H](O)[C@H](O[C@@H]2O[C@H](CO)[C@@H](O)[C@H](O)[C@H]2O)[C@H]1O[C@@H]1O[C@H](CO)[C@@H](O)[C@H](O)[C@H]1O)C3 [Rebaudioside D] | do not seem to play a significant role | –
4 | C=C1C[C@@]23CC[C@H]4[C@@](C)(CCC[C@@]4(C)C(=O)O)[C@@H]2CC[C@]1(O[C@@H]1O[C@H](CO)[C@@H](O)[C@H](O)[C@H]1O[C@@H]1O[C@H](CO)[C@@H](O)[C@H](O)[C@H]1O)C3 [Steviolbioside] | do not seem to play a significant role | –
5 | C=C1C[C@@]23CC[C@H]4[C@@](C)(CCC[C@@]4(C)C(=O)O[C@@H]4O[C@H](CO)[C@@H](O)[C@H](O)[C@H]4O)[C@@H]2CC[C@]1(O[C@@H]1O[C@H](CO)[C@@H](O)[C@H](O)[C@H]1O[C@@H]1O[C@H](CO)[C@@H](O)[C@H](O)[C@H]1O)C3 [Stevioside] | do not seem to play a significant role | –
6 | Rebaudioside B | seems to impact barley germination at certain content ranges | –
7 | C=C1C[C@@]23CC[C@H]4[C@@](C)(CCC[C@@]4(C)C(=O)O[C@@H]4O[C@H](CO)[C@@H](O)[C@H](O)[C@H]4O)[C@@H]2CC[C@]1(O[C@@H]1O[C@H](CO)[C@@H](O)[C@H](O)[C@H]1O)C3 [Rubusoside] | do not seem to play a significant role | –
8 | C=C1C[C@@]23CC[C@H]4[C@@](C)(CCC[C@@]4(C)C(=O)O[C@@H]4O[C@H](CO)[C@@H](O)[C@H](O)[C@H]4O)[C@@H]2CC[C@]1(O[C@@H]1O[C@H](CO)[C@@H](O)[C@H](O[C@@H]2O[C@H](CO)[C@@H](O)[C@H](O)[C@H]2O)[C@H]1O[C@@H]1O[C@H](CO)[C@@H](O)[C@H](O)[C@H]1O)C3 [Rebaudioside A] | positive impact | appears to have an effect
9 | Rebaudioside F | seems to impact barley germination at certain content ranges | –
10 | Rebaudioside C | positive impact | –
11 | C=C1C[C@@]23CC[C@H]4[C@@](C)(CCC[C@@]4(C)C(=O)O[C@@H]4O[C@H](CO)[C@@H](O)[C@H](O)[C@H]4O)[C@@H]2CC[C@]1(O[C@@H]1O[C@H](CO)[C@@H](O)[C@H](O)[C@H]1O[C@@H]1O[C@@H](C)[C@H](O)[C@@H](O)[C@H]1O)C3 [Dulcoside A] | negative impact | –
